“Also recorded” adds a separate entry of the source.
Tests used:
[1] = target: T1, PGK1 (Homo sapiens, UniProt P00558); test: Dye-based thermal denaturation assay; assay type: binding; conditions: recombinant PGK1, compound 20 μM
T1 sequence (P00558 1-417): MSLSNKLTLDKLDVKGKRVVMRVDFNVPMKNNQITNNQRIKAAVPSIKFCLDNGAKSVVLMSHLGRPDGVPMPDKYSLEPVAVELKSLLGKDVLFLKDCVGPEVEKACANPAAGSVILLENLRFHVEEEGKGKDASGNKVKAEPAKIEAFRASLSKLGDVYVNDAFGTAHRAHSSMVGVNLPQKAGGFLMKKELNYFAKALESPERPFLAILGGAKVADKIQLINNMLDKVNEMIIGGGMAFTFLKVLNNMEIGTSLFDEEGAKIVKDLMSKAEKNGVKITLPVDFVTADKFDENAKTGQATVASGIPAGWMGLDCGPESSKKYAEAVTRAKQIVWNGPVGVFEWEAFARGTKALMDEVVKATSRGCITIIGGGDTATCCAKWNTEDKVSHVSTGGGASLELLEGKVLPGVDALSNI
Description: FIG. 5A-E. A photoactivatable affinity probe-based approach identifies PGK1 as the relevant cellular target of CBR-470-1. (a) Silver staining and anti-biotin Western blots of ammonium sulfate fractionated lysates from UV-irradiated IMR32 cells treated with 5 μM for 1 hour with or without CBR-470-1 competition (250 μM) (n=3). Shown on the right are initial proteomic target results from gel-band digestion and LC-MS/MS analysis. (b) Dye-based thermal denaturation assay with recombinant PGK1 in the presence CBR-470-1 (20 μM) or vehicle alone (n=3). Calculated Tm values are listed. (c, d) Dose-dependent thermal stability assay of recombinant PGK1 and GAPDH in the presence of increasing doses of CBR-470-1 near the Tm of both proteins (57° C.) (c) (n=5) or room temperature (d) (n=3). Western blot of sample supernatants after centrifugation (13,000 rpm) detected total PGK1 and GAPDH protein, which were plotted in Prism (below). (e) ARE-LUC reporter activity in HEK293T cells with transient shRNA.
Dye-based thermal denaturation assay. Thermal denaturation experiments were performed using a Protein Thermal Shift Dye Kit (ThermoFisher, 4461146). […] Fluorescence values were recorded using a Viia7 Real-Time PCR instrument according to supplied instructions.

[2] = tested on: alveolar macrophages; test: PM exposure of alveolar macrophages (Example 6); assay type: cell-based
Excerpt: FIG. 30A-D. CBR-470 activates NRF2 and inhibits PM-induced inflammatory cytokine production from alveolar macrophages. (a-c) Indicated transcript levels in response to PM exposure for 4 hr in the presence and absence of CBR-470, PGK1 inhibitor (10 micromolar). (d) Western blot analysis of NRF2 protein levels under the conditions in a-c.
FIG. 31. Time dependent effects of CBR-470-1 on alveolar macrophage cytokine mRNA levels at specific timepoints
FIG. 32. […] This represents a distinct mechanism of action compared to many other pharmacologic NRF2 activators, which achieve efficacy through induction of ROS (reactive oxygen species).
Indicated transcript levels in response to PM exposure for 4 hr in the presence and absence of CBR-470-1, PGK1 inhibitor (10 micromolar). Western blot analysis of NRF2 protein levels. PM-exposure also results in activation of the NRF2 pathway, which is confirmed by increased transcript levels of its prototypical target Nqo1 (FIG. 30c) and NRF2 protein accumulation (FIG. 30d). […] FIG. 31 illustrates time dependent effects of CBR-470-1 on alveolar macrophage cytokine mRNA levels at specific timepoints. […] This represents a distinct mechanism of action compared to many other pharmacologic NRF2 activators, which achieve efficacy through induction of ROS (reactive oxygen species).

[3] = tested on: Human lung fibroblasts; test: TGF-beta-induced collagen and SMA in human lung fibroblasts (Western blot); assay type: cell-based; conditions: increasing doses, day 0, 1, 2
Description: FIG. 22. Human lung fibroblasts were treated with TGF-beta and increasing doses of CBR-470 and measured collagen and alpha-smooth muscle actin (a-SMA), a marker for myofibroblast differentiation at day 0, 1, and 2.
Fibrosis is defined by the overgrowth, hardening, and/or scarring of various tissues and is attributed to excess deposition of extracellular matrix components including collagen. Fibrosis is the end result of chronic inflammatory reactions induced by a variety of stimuli including persistent infections, autoimmune reactions, allergic responses, chemical insults, radiation, and tissue injury. Fibroblasts under stimulation by transforming growth factor (TGF)-β, a key cytokine in the pathogenesis of IPF, alter their gene expression profile with de novo expression of cytoskeletal and contractile proteins normally found within smooth muscle cells, and components of the extracellular matrix, including collagen. Fibroblast cells were treated with TGF-β for 24 or 48 hours or left untreated (0). Collagen was detected by Westernblot using an anti-collagen antibody (Cedarlane, CL50111AP-1, 1:3000 dilution). SMA was detected with an anti-SMA antibody from Sigma (T6074, 1:20000 dilution). […] Collagen and SMA production are biomarkers of fibrotic phenotypes in vivo (FIG. 22).

[4] = control and PM-treated cells, PM 4 hr

shift in PGK1 thermal stability [1]: consistent shift in PGK1 stability
Compound: CC(C)CN[C@H]1CS(=O)(=O)C[C@@H]1S(=O)(=O)c1ccc(Cl)cc1 [CBR-470-1]
ROS elevation ([2]; alveolar macrophages): does not cause significant ROS elevation in alveolar macrophages
overall cellular bioenergetics ([2]; alveolar macrophages): only a slight decrease in overall cellular bioenergetics
Il6 mRNA levels [2, 4]: dose-dependent decreases in 116 and Tnfα mRNA levels in both control and PM-treated cells
Tnfα mRNA levels [2, 4]: dose-dependent decreases in 116 and Tnfα mRNA levels in both control and PM-treated cells
NRF2-signaling (Nqo1 transcript, NRF2 protein) ([2]; control and PM-treated macrophages): activates NRF2-signaling in both control and PM-treated macrophages
alpha-smooth muscle actin (a-SMA), marker for myofibroblast differentiation [3]: dose- and time-dependent inhibition of collagen and smooth-muscle actin (SMA) protein production; also recorded: inhibited myofibroblast differentiation and collagen protein expression in a dose dependent manner
collagen protein [3]: dose- and time-dependent inhibition of collagen and smooth-muscle actin (SMA) protein production; also recorded: inhibited myofibroblast differentiation and collagen protein expression in a dose dependent manner

Reference: US12048686B2, “Compositions and methods for activating NRF2-dependent gene expression” (The University of Chicago, priority 2018, dated 2024)
